Measured values published in patent US20260007680A1, “Compounds and Their Use as PDE4 Activators” (Mironid Limited, priority 2022, published 2026).

Key:
[1] = biological target: T1, PDE4D5 (Homo sapiens, UniProt Q08499); assay: PDE assay, activation of PDE4D5 long form (Experiment 1); type: biochemical; conditions: for activation at 100 µM: 100 μM test compound, mean % increase in counts over basal activity
T1 construct: Using Full-Length Human PDE4 Isoforms; Long Forms PDE4D5, PDE4C3, PDE4B1 and Short Form PDE4B2; made in house; cytosol fraction of cell lysate
Procedure: (§1) One suitable method of detecting whether or not a compound is capable of serving as an activator of a PDE4 long form is using a two-step radio-assay procedure described in Experiment 1. In summary, the method involves incubating a PDE4 long form with a test small molecule activator, together with [^3H]-labelled cAMP to assess alterations in the breakdown of cAMP to the 5′-adenosine monophosphate (5′-AMP) product. A sample of the reaction mixture from such an incubation is subsequently treated with snake venom 5′-nucleotidase to allow conversion of the nucleotide [^3H]-labelled 5′-AMP to the uncharged nucleoside [^3H]-labelled adenosine, which can be separated and quantified to assess PDE4 activity and the effect of the test compound (Thompson, W. J. and Appleman, M. M. Biochemistry 10: 311-316, 1971, with some modifications as described in: Marchmont, R. J. and Houslay, M. D. Biochem J. 187: 381-92, 1980).
(§2) Experiment 1: Measurement of Modulation of Enzyme Activity by PDE4 Long Form Activators of the Present Invention Using Full-Length Human PDE4 Isoforms; Long Forms PDE4D5, PDE4C3, PDE4B1 and Short Form PDE4B2 • (Marchmont, R. J. and Houslay, M. D. Biochem. J. 187: 381-92, 1980)
For transient transfection of exogenous PDE4 long isoforms, HEK 293 cells were transfected with pcDNA3.1 or pDEST^TM PDE4 expression vectors using Lipofectamine LTX/Plus reagent (Invitrogen) as outlined by the manufacturer.
(§3) Where stable cell lines were generated the clonal isolates were expanded to obtain cell lines that stably expressed the full-length human PDE4 long isoforms and the full length human PDE4B2 short isoform. These were called the HEK-PDE4D5, HEK-PDE4B1 and HEK-PDE4B2 cell lines, respectively.
HEK-PDE4D5 cells were seeded out in 100 mm plates and incubated at 37° C. in an atmosphere of 5% CO2, 95% air. Cell lysates were prepared using KHEM buffer [50 mM KCl, 10 mM EGTA, 50 mM HEPES (pH 7.2), 1.92 mM MgCl2].
To prepare the cell lysates, the 100 mm plates containing the cells were placed on ice and washed with ice-cold PBS (phosphate buffered saline, pH 7.4). KHEM buffer (500 μL) was added to the cells. Cells were then scraped off the plate and triturated using a needle (BD Microlance™ 0.8, 40 mm). The lysed cells were then centrifuged at 2000 rpm for 10 minutes to remove cell debris and the supernatant (cell lysate containing recombinant PDE4D5) was transferred to a fresh tube and kept on ice.
The cell lysate containing recombinant PDE4D5 was transferred into a centrifuge tube and placed into an ultracentrifuge (BECKMAN COULTER) and spun at high speed (100,000 g) for 30 minutes at 4° C. The cytosol fraction was then collected and its protein amount determined using a BCA protein assay.
PDE assays were performed in thin walled V-bottomed 96-well plates. The assays were performed at a final concentration of 10 mM Tris/5 mM MgCl2 plus PDE4D5 cell lysate cytosol fraction, containing over-expressed PDE4D5, with and without test compound. The lysate/compound mix were incubated together for 15 min at room temperature on an orbital shaker prior to addition of [^3H] cAMP (final concentration 1 μM [^3H] cAMP; Perkin Elmer) to a final volume of 50 μL per reaction. The reactions were then incubated for 10 minutes at 30° C., terminated by heating for 2 min at 95° C. and allowed to cool. Snake venom (12.5 μL of 1 mg/mL; Crotalus atrox, Sigma) was then added and the plates were agitated and incubated for a further 15 minutes at 30° C. Dowex ion exchange resin (Sigma, chloride form, 200-400 mesh; 200 μL; prepared as a 1:1 Dowex:water stock, thoroughly re-suspended and diluted 2:1 with ethanol) was then added to each well and the plates incubated for 15 min at room temperature on an orbital shaker ensuring sufficient agitation for resin suspension (550 RPM). The reaction mixture was then transferred to a 96 well filter plate (Millipore; 0.45 μm pore size) and filtered into a receiving 96-well plate to remove the dowex suspension. […]

[2] = biological target: T2, PDE4B2 (Homo sapiens, UniProt Q07343); assay: PDE assay, PDE4B2 short form (Experiment 1); type: biochemical; conditions: 100 μM test compound; mean % increase in counts over basal activity
T2 construct: the full length human PDE4B2 short isoform; made in house; cytosol fraction of cell lysate, prepared as described for PDE4D5
Procedure: as §1, §2, §3
PDE assays were performed in thin walled V-bottomed 96-well plates. The assays were performed at a final concentration of 10 mM Tris/5 mM MgCl2 plus PDE4D5 cell lysate cytosol fraction, containing over-expressed PDE4D5, with and without test compound. The lysate/compound mix were incubated together for 15 min at room temperature on an orbital shaker prior to addition of [^3H] cAMP (final concentration 1 μM [^3H] cAMP; Perkin Elmer) to a final volume of 50 μL per reaction. The reactions were then incubated for 10 minutes at 30° C., terminated by heating for 2 min at 95° C. and allowed to cool. Snake venom (12.5 μL of 1 mg/mL; Crotalus atrox, Sigma) was then added and the plates were agitated and incubated for a further 15 minutes at 30° C. Dowex ion exchange resin (Sigma, chloride form, 200-400 mesh; 200 μL; prepared as a 1:1 Dowex:water stock, thoroughly re-suspended and diluted 2:1 with ethanol) was then added to each well and the plates incubated for 15 min at room temperature on an orbital shaker ensuring sufficient agitation for resin suspension (550 RPM). The reaction mixture was then transferred to a 96 well filter plate (Millipore; 0.45 μm pore size) and filtered into a receiving 96-well plate to remove the dowex suspension. 30 μL of the filtered solution was then transferred to the wells of an Opti-plate (Perkin Elmer) 96 well assay plate and 120 μL of Microscint 40 scintillation fluid was added. The plate was then placed on an orbital shaker for 10 min at high speed (900 rpm) to mix the sample with scintillation fluid prior to quantitation using a plate based scintillation counter (Top-Count).
The % increase in counts in the presence of test compound at a particular concentration indicates the % increase in enzyme activity at that concentration.

T1 sequence (Q08499 1-745 isoform Q08499-6): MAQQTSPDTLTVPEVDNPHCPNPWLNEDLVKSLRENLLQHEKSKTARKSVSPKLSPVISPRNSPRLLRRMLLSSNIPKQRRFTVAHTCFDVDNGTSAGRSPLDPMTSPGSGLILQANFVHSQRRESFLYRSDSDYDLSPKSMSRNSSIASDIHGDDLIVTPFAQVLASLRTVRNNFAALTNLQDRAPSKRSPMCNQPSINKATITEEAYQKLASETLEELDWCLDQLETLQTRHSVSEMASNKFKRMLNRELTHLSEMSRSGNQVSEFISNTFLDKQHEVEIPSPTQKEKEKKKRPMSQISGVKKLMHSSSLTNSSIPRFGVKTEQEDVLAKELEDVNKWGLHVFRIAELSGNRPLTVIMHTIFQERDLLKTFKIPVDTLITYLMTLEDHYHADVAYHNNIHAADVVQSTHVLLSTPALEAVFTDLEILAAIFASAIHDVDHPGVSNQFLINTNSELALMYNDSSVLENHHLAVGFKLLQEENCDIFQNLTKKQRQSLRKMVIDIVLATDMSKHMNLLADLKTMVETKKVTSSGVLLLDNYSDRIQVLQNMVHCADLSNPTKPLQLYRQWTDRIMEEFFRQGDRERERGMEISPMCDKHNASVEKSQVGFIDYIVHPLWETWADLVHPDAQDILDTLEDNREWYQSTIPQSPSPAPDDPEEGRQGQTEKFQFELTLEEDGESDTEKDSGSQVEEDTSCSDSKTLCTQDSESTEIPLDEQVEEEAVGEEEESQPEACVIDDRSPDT
T2 sequence (Q07343 1-564 isoform Q07343-2): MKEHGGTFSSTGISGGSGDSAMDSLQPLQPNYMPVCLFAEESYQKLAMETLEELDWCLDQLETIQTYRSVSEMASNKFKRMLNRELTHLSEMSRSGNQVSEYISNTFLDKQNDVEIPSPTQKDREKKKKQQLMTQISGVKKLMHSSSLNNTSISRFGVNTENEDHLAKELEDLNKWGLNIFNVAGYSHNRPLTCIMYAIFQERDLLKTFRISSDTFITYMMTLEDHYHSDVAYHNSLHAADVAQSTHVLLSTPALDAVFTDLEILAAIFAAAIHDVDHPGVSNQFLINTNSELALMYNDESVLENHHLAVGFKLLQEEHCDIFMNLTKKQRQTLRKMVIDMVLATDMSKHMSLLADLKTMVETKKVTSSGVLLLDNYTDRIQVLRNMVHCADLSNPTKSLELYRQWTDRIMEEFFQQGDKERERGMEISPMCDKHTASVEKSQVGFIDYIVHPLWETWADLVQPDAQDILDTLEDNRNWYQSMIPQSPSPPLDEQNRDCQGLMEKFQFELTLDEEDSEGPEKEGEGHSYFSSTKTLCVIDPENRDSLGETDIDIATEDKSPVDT

Structure (SMILES): Cc1cncc(-c2nc3cc(C(=O)N[C@H]4CCOc5ccccc54)ccc3[nH]2)c1 [Example 4, (S)—N-(chroman-4-yl)-2-(5-methylpyridin-3-yl)-1H-benzo[d]imidazole-5-carboxamide]
- activation at 100 µM [1]: 140%
- activation of PDE4D5 (FIG. 1) ([1]; concentration-response): concentration-dependent activation
- activation at 100 µM [2]: -6%

Structure (SMILES): Cc1cncc(-c2nc3ccc(C(=O)N[C@H]4CCOc5ccccc54)cc3n2C)c1 [Example 28, (S)—N-(chroman-4-yl)-1-methyl-2-(5-methylpyridin-3-yl)-1H-benzo[d]imidazole-6-carboxamide]
- activation at 100 µM [1]: 45%
- activation at 100 µM [2]: 5%

Structure (SMILES): Cc1ccncc1-c1nc2cc(C(=O)N[C@H]3CCOc4ccccc43)ccn2n1 [Example 53, (S)—N-(chroman-4-yl)-2-(4-methylpyridin-3-yl)-[1,2,4]triazolo[1,5-a]pyridine-7-carboxamide]
- activation at 100 µM [1]: 33%
- activation at 100 µM [2]: -8%

Structure (SMILES): Cc1ccc(-c2nc3cc(C(=O)N[C@H]4CCOc5ccccc54)ccc3[nH]2)cn1 [Example 2, (S)—N-(chroman-4-yl)-2-(6-methylpyridin-3-yl)-1H-benzo[d]imidazole-5-carboxamide]
- activation at 100 µM [1]: 115%
- activation at 100 µM [2]: -39%
